Measurements reported in patent US8975265B2, “Substituted imidazo[1,2-a]pyrimidines and —pyridines” (Bayer Intellectual Property GmbH, priority 2010, dated 2015).

How the values were obtained:
[1] = test system: KPL-4 breast cancer cell line; test: Tumor cell proliferation assay (CellTiter-Glo, 72 h), KPL-4; assay type: cell-based; details: KPL4, 72h drug exposure
Description: Biological Assay 4.0: Tumor Cell Proliferation Assays
Compounds were tested in a cell-based assay that measures the capacity of the compounds to inhibit tumour cell proliferation following a 72h drug exposure. Cell viability is determined using CellTiter-Glow® (CTG, Promega, cat# G7571/2/3). The CellTiter-Glo® Luminescent Cell Viability Assay is a homogeneous method to determine the number of viable cells in culture. Detection is based on using the luciferase reaction to measure the amount of ATP from viable cells. The amount of ATP in cells correlates with cell viability. Within minutes after a loss of membrane integrity, cells lose the ability to synthesize ATP, and endogenous ATPases destroy any remaining ATP; thus the levels of ATP fall precipitously.
For each cell line assayed, cells were plated onto a separate plate for determination of […] at t=0 hour and t=72 hour time points. Following overnight incubation at 37° C., chemiluminescence values for the t=0 samples were determined after adding 10 μl medium and 100 μl CTG solution according to manufacture protocol. Plates for the t=72 hour time points were treated with compounds diluted into growth medium at ten times final concentration added in 10 μL to the cell culture plate. Cells were then incubated for 72 hours at 37° C. Chemiluminescence values for the t=72 hour samples were determined. […] Experiments were controlled using a reference compound as standard.

[2] = test system: p-AKT1/2/3-S473 in KPL4 breast tumour cell line; test: Cellular p-AKT1/2/3-S473 assay; assay type: cell-based; details: KPL4 breast tumour cell line, 2 hours treatment; read-out: pAKT-S743 median IC50
Description: The molecular mechanism of action was investigated in a set of experiments to assess the inhibition of the PI3K-AKT-mTOR pathway in responsive cell lines such as KPL4 breast tumour cell line (PIK3CAH1047R, HER20/E and hormone independent). The phospho-substrates of PI3K-AKT-mTOR axis were used as the read-outs to reflect pathway inhibition. Cells were seeded at 60-80% confluency per well in 96-well cell culture plates. After overnight incubation at 37° C. 5% CO2, cells were treated with compounds and vehicle at 37° C. for 2 hours. […] All measurements where at least done in duplicates and confirmed by independent repetition.
Alternatively pAKT-S473 was measured using the “Akt Duplex” of the MULTI-SPOT® Assay System (Fa. Meso Scale Discovery, Cat# N41100B-1) following manufacturers instructions. Each assay used 20 μg of protein extract and measured total AKT and p-AKT content simultaneously in one well. All measurements where at least done in duplicates and confirmed by independent repetition. Values for P-AKT are expressed as percentage of P-AKT level compared to total-AKT content of the extracts.

[3] = target: His-tagged human recombinant kinase full-length Akt1 (Homo sapiens (Human), UniProt P31749); test: Akt1 kinase assay (TR-FRET); assay type: biochemical; details: 10 μM ATP; read-out: Akt1, median IC50
His-tagged human recombinant kinase full-length Akt1, sequence (P31749 whole entry): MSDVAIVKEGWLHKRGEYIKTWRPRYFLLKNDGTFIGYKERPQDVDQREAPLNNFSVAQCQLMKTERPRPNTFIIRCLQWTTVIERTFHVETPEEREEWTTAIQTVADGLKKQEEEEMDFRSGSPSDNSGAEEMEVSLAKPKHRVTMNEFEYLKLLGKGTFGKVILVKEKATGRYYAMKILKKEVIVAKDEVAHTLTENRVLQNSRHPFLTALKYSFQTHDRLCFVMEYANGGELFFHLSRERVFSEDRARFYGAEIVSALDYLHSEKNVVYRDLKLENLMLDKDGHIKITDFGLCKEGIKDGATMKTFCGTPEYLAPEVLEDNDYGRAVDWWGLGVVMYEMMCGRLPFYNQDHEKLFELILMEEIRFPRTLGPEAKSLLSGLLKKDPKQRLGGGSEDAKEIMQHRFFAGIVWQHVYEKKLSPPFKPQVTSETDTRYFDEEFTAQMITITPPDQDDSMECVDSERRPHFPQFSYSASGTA
Description: Biological Assay 1.0: Akt1 Kinase Assay
Akt1 inhibitory activity of compounds of the present invention was quantified employing the Akt1 TR-FRET assay as described in the following paragraphs.
As substrate for the kinase reaction the biotinylated peptide biotin-Ahx-[…] (C-terminus in amide form) was used which can be purchased e.g. from the company Biosynthan GmbH (Berlin-Buch, Germany).
For the assay 50 nl of a 100 fold concentrated solution of the test compound in DMSO was pipetted into a black low volume 384 well microtiter plate (Greiner Bio-One, Frickenhausen, Germany), 2 μl of a solution of Akt1 in assay buffer [50 mM TRIS/HCl pH 7.5, 5 mM MgCl2, 1 mM dithiothreitol, 0.02% (v/v) Triton X-100 (Sigma)] were added and the mixture was incubated for 15 min at 22° C. to allow prebinding of the test compounds to the enzyme before the start of the kinase reaction. […] The concentration of Akt1 in the assay was adjusted depending of the activity of the enzyme lot and was chosen appropriate to have the assay in the linear range, typical enzyme concentrations were in the range of about 0.05 ng/μl (final conc. in the 5 μl assay volume).
The resulting mixture was incubated 1 h at 22° C. to allow the binding of the biotinylated phosphorylated peptide to the streptavidine-XL665 and the antibodies. Subsequently the amount of phosphorylated substrate was evaluated by measurement of the resonance energy transfer from the anti-mouse-IgG-Eu-Chelate to the streptavidine-XL665.

Row | SMILES | IC50 [1] [µM] | IC50 [2] [µM] | IC50 [3] [µM]
1 | NC1(c2ccc(-c3nc4cc(-c5ccc(F)cc5)ccn4c3-c3ccccc3)cc2)CCC1 [Example 2-34] | 2.2 | 1.95 | 0.989
2 | COC(=O)c1ccn2c(-c3ccccc3)c(-c3ccc(C4(N)CCC4)cc3)nc2c1 [Example 2-35] | 5 | 0.975 | 0.226
3 | NC1(c2ccc(-c3nc4cc(C5CC5)ccn4c3-c3ccccc3)cc2)CCC1 [Example 2-37] | 1.9 | 0.441 | 1.64
4 | CCc1ccc2nc(-c3ccc(C4(N)CCC4)cc3)c(-c3ccccc3)n2c1 [Example 2-38] | 1.9 | 0.467 | 0.26
5 | NC1(c2ccc(-c3nc4c(C5CC5)cccn4c3-c3ccccc3)cc2)CCC1 [Example 2-47] | 2 | 0.339 | 0.14
6 | C=Cc1ccc2nc(-c3ccc(C4(N)CCC4)cc3)c(-c3ccccc3)n2c1 [Example 2-48] | 2.5 | 1.03 | 0.3
7 | CC(C)NC(=O)c1ccc2nc(-c3ccc(C4(N)CCC4)cc3)c(-c3ccccc3)n2c1 [Example 2-53] | 2 | 0.276 | 1.71
8 | NC1(c2ccc(-c3nc4ccc(C(=O)NCCF)cn4c3-c3ccccc3)cc2)CCC1 [Example 2-54] | 1.3 | 0.083 | 0.423
9 | NC1(c2ccc(-c3nc4ccc(C(=O)NCCO)cn4c3-c3ccccc3)cc2)CCC1 [Example 2-55] | 5.5 | 0.308 | 1.14
10 | COCCNC(=O)c1ccc2nc(-c3ccc(C4(N)CCC4)cc3)c(-c3ccccc3)n2c1 [Example 2-56] | 3.4 | 0.2 | 0.452
11 | NC1(c2ccc(-c3nc4ccc(C(=O)NCC5CC5)cn4c3-c3ccccc3)cc2)CCC1 [Example 2-58] | 1.9 | 0.193 | 0.342
12 | NC1(c2ccc(-c3nc4ccc(C(=O)NO)cn4c3-c3ccccc3)cc2)CCC1 [Example 2-59] | 3.8 | 0.236 | 0.257
13 | CN(C)C(=O)c1ccc2nc(-c3ccc(C4(N)CCC4)cc3)c(-c3ccccc3)n2c1 [Example 2-61] | 9.4 | 0.781 | 1.9
14 | CCNC(=O)c1ccc2nc(-c3ccc(C4(N)CCC4)cc3)c(-c3ccccc3)n2c1 [Example 2-62] | 1.7 | 0.093 | 0.376
15 | NC1(c2ccc(-c3nc4nc(OCCN5CCCC5=O)ccn4c3-c3ccccc3)cc2)CCC1 [Example 2-64] | 3.2 | 0.203 | 1.66
16 | Cn1cncc1-c1ccn2c(-c3ccccc3)c(-c3ccc(C4(N)CCC4)cc3)nc2c1 [Example 2-116] | 1.6 | 0.063 | 0.236
17 | NC1(c2ccc(-c3nc4ccc(-c5nn[nH]n5)cn4c3-c3ccccc3)cc2)CCC1 [Example 2-135] | 10 | 9.81 | 0.074
18 | NC1(c2ccc(-c3nc4ccc(-c5cccnc5)cn4c3-c3ccccc3)cc2)CCC1 [Example 2-137] | 1.7 | 0.149 | 0.541

More lines, in order of falling IC50 [1], values ahead:

Row | IC50 [1] [µM] | IC50 [2] [µM] | IC50 [3] [µM] | SMILES
19 | 10 | 4.75 | 0.091 | NC1(c2ccc(-c3nc4ccc(C(=O)O)cn4c3-c3ccccc3)cc2)CCC1 [Example 2-51]
20 | 10 | 3.83 | 1.07 | NC(=O)C1(COc2ccn3c(-c4ccccc4)c(-c4ccc(C5(N)CCC5)cc4)nc3n2)CC1 [Example 2-65]
21 | 10 | 3.1 | 1.95 | C=Cc1ccn2c(-c3ccccc3)c(-c3ccc(C4(N)CCC4)cc3)nc2c1 [Example 2-108, 1-[4-(3-phenyl-7-vinyl-imidazo[1,2-a]pyridin-2-yl)-phenyl]-cyclobutylamine]
22 | 10 | 10 | 0.026 | NC1(c2ccc(-c3nc4cc(-c5nn[nH]n5)ccn4c3-c3ccccc3)cc2)CCC1 [Example 2-117]
23 | 10 | 8.12 | 0.55 | NC1(c2ccc(-c3nc4cc(C(=O)O)ccn4c3-c3ccccc3)cc2)CCC1 [Example 2-120]
24 | 9.2 | 1.24 | 19.4 | NC1(c2ccc(-c3nc4cc(C(=O)N5CCCC5)ccn4c3-c3ccccc3)cc2)CCC1 [Example 2-42]
25 | 9.2 | 1.34 | 0.062 | CCOC(=O)c1cccn2c(-c3ccccc3)c(-c3ccc(C4(N)CCC4)cc3)nc12 [Example 2-43]
26 | 7.7 | 0.655 | 0.031 | COC(=O)c1cc(Cl)c2nc(-c3ccc(C4(N)CCC4)cc3)c(-c3ccccc3)n2c1 [Example 2-60]
27 | 4.2 | 0.725 | 0.086 | CCOC(=O)c1ccn2c(-c3ccccc3)c(-c3ccc(C4(N)CCC4)cc3)nc2c1 [Example 2-119]
28 | 3.1 | 0.147 | 0.493 | NC1(c2ccc(-c3nc4ccc(C(=O)NC5CC5)cn4c3-c3ccccc3)cc2)CCC1 [Example 2-57]
29 | 2.4 | 0.268 | 0.345 | COC(=O)/C=C/c1ccn2c(-c3ccccc3)c(-c3ccc(C4(N)CCC4)cc3)nc2c1 [Example 2-123]
30 | 2.1 | 0.202 | 0.151 | NC1(c2ccc(-c3nc4ccccn4c3-c3ccccc3)cc2)CCC1 [Example 2-106, 1-[4-(3-phenyl-imidazo[1,2-a]pyridin-2-yl)-phenyl]-cyclobutylamine]
31 | 2 | 0.256 | 0.734 | NC1(c2ccc(-c3nc4ccc(C5CC5)cn4c3-c3ccccc3)cc2)CCC1 [Example 2-63]
32 | 1.9 | 0.297 | 0.099 | NC1(c2ccc(-c3nc4c(-c5cn[nH]c5)cccn4c3-c3ccccc3)cc2)CCC1 [Example 2-50]
33 | 1.9 | 0.15 | 0.533 | NC1(c2ccc(-c3nc4ccc(-c5ccncc5)cn4c3-c3ccccc3)cc2)CCC1 [Example 2-136]
34 | 1.8 | 0.134 | 0.113 | NC1(c2ccc(-c3nc4cc(Cl)ccn4c3-c3ccccc3)cc2)CCC1 [Example 2-66]
35 | 1.7 | 0.253 | 0.204 | CCOc1ccc2nc(-c3ccc(C4(N)CCC4)cc3)c(-c3ccccc3)n2c1 [Example 2-107, 1-[4-(6-ethoxy-3-phenyl-imidazo[1,2-a]pyridin-2-yl)-phenyl]-cyclobutylamine]
36 | 1.7 | 0.066 | 0.153 | NC1(c2ccc(-c3nc4cc(-c5cc[nH]n5)ccn4c3-c3ccccc3)cc2)CCC1 [Example 2-112]
37 | 1.7 | 0.088 | 0.171 | NC1(c2ccc(-c3nc4ccc(-c5cc[nH]n5)cn4c3-c3ccccc3)cc2)CCC1 [Example 2-131]
38 | 1.5 | 0.028 | 0.181 | NC1(c2ccc(-c3nc4cc(-c5ccncc5)ccn4c3-c3ccccc3)cc2)CCC1 [Example 2-109, 1-[4-(3-phenyl-7-pyridin-4-yl-imidazo[1,2-a]pyridin-2-yl)-phenyl]-cyclobutylamine]
39 | 1.2 | 0.046 | 0.409 | CNC(=O)c1ccn2c(-c3ccccc3)c(-c3ccc(C4(N)CCC4)cc3)nc2c1 [Example 2-122]
